Key:
[1] = i.g. (10 mg/kg)
[2] = test system: complement alternative pathway; assay: Test of inhibitory effect on the complement alternative pathway (IBL alternative pathway kit, LPS-coated plate); assay type: biochemical, healthy volunteers; conditions: inhibiting the alternative pathway; diluted serum, 30 min pretreatment, 1 h at 37°C
Experimental: The inhibitory effect of the compounds on the complement alternative pathway was detected using the IBL alternative pathway kit (COMPL AP330 RUO). Serum from healthy volunteers was collected and 1 portion was diluted with a buffer of 20 mM EDTA in gelatin (0.15 mM CaCl2, 141 mM NaCl, 4.5 mM MgCl2, 4.2 mM HEPES, and 0.1% gelatin at pH 7.4) to 50% (v/v), and 1 portion was diluted to 50% (v/v) with a buffer of 20 mM EGTA in gelatin. The compounds were prepared in DMSO to a working solution 100 times the final concentration. Before use, 50% of the above serum was diluted 1/18 with an AP diluent in the kit. 1 part of the compound working solution (v/v) or DMSO (positive control PC) was added to 99 parts of the diluted serum containing EGTA for pretreatment for 30 min, and 1 part of DMSO (v/v) was added to 99 parts of the diluted serum containing EDTA, as negative control (NC). The serum pretreated with the above compounds (or DMSO) was added at […] to an LPS-coated 96-well plate and incubated at 37°C for 1 h, and the plate was washed 3 times with washing solution in the kit, and the conjugated chromogenic substrate was added according to the instruction in the kit, and the absorbance was read at 405 nm with a microplate reader. The inhibitory activity of the compounds on alternative pathway was calculated using the following formula. […]

SMILES	AUC0-24 h ([1]; rat plasma)	Cmax ([1]; rat plasma)	T1/2 ([1]; rat plasma)	Tmax ([1]; rat plasma)	F% ([1]; rats)	IC50 [2]
CCO[C@H]1CCN(Cc2c(OC)cc(C)c3[nH]ccc23)[C@H](c2ccc(C(=O)O)cc2)C1 [LNP023]	9.867 µg·h/mL	0.867 µg/mL	3.39 h	3.5 h	49%	
[2H]C([2H])([2H])Oc1cc(C)c2[nH]ccc2c1CN1CC[C@@H](C2CC2)C[C@H]1c1ccc(C(=O)O)cc1 [Trifluoroacetate of compound 1]						< 0.2 µM
COc1cc(C)c2[nH]ccc2c1CN1CC[C@@H](C2CC2)C[C@H]1c1ccc(C(=O)O)cc1 [Trifluoroacetate of compound 2]						< 0.2 µM
